How the values were obtained:
[1] = target: S-ACE2 interaction (SARS-CoV-2 S protein trimer, Wuhan strain, with biotinylated-ACE2) (Severe acute respiratory syndrome coronavirus 2, UniProt P0DTC2); test: biochemical; assay type: binding; conditions: for inhibition of the S-ACE2 interaction: 200 μM
[2] = test system: SARS-CoV-2 original Wuhan strain (INMI1 P4) in Vero E6 cells; test: microbe, parasite or virus in culture; assay type: cell-based; conditions: for inhibition at 33 µM: Severe acute respiratory syndrome coronavirus 2, Vero C1008, 72 h; for inhibition at 33 µM / inhibition at 22 µM: read-out: inhibition of viral induced CPE; for inhibition at 22 µM: Severe acute respiratory syndrome coronavirus 2, Vero C1008
SARS-CoV-2 Wuhan strain [3] = assay type: cell-based
Vero E6 cells = conditions: 200 μM
in vitro = conditions: African green monkey
RBD-ACE2 binding = conditions: ref not given, cited from earlier work
SARS-CoV-2 Wuhan strain [4] = assay type: cell-based; remark: listed apart in the source

## CS(=O)(=O)N1CCCc2cc(-c3csc(-c4cccc(C(N)=O)c4)n3)ccc21 [compound 7]
[1]
  inhibition at 200 µM: 20%

## CC(OC(=O)CCC(=O)N1CCC(c2ccccc2)=N1)c1ccc(-n2cncn2)cc1 (stereo not shown) [compound 34]
[2]
  inhibition at 33 µM: 19%

## CC(NC(=O)CCC(=O)N1CCN(c2ccccc2)CC1)c1ccc(-n2cncn2)cc1 (stereo not shown) [compound 31]
[2]
  inhibition at 33 µM: 8%

## CC(NC(=O)CCC(=O)N1CCC(c2ccccc2)=N1)c1ccc(-n2cncn2)cc1 (stereo not shown) [compound 17]
SARS-CoV-2 Wuhan strain [3]
  decrease in the number of infectious virions released: 81%
[2]; 2.5 μM
  reduction in viral induced CPE: over 10%
[2]
  inhibition at 33 µM: 23%
Vero E6 cells
  cytotoxicity: strong cytotoxicity
In vitro
  CC50: 90 µM
[1]
  inhibition at 200 µM: ~20%
  inhibition of the S-ACE2 interaction: surpassed PEA

## O=C(Nc1nc(-c2ccc3c(c2)CCC3)cs1)c1ccc(CSc2nnc[nH]2)cc1 [compound 12]
[1]
  inhibition of the S-ACE2 interaction: surpassed PEA

## CCCCC/C=C\C/C=C\CCCCCCCC(=O)O [LA, linoleic acid, reference compound]
RBD-ACE2 binding; 8.9 mM, in vitro assays
  inhibition of the RBD-ACE2 binding: 100%
[1]
  inhibition at 200 µM: 84%

## CC(c1ccc(-n2cncn2)cc1)N(C)C(=O)CCC(=O)N1CCC(c2ccccc2)=N1 (stereo not shown) [compound 36]
SARS-CoV-2 Wuhan strain [3]
  PFU/mL, drug: 2.49 × 10^7 PFU/mL
  reduction of replication-capable lytic virions (TCID50): 90%
SARS-CoV-2 Wuhan strain [4]
  detected viral genomic copies: 16.9 copies/20 μL
SARS-CoV-2 Wuhan strain [4]; 33 μM
  reduction in number of viral genome copies in the supernatant: 89%
[2]
  inhibition at 33 µM: 91%
[2]; Severe acute respiratory syndrome coronavirus 2, Vero C1008, read-out: EC50 (inhibition of SARS-CoV-2-induced CPE)
  EC50: 0.29 µM

## Cc1cccc(OCC(=O)N2CC=C(c3c[nH]c4ccccc34)CC2)c1C [compound 15]
[2]
  inhibition at 22 µM: 10%
[1]
  inhibition at 200 µM: 20%

## CC(=O)c1ccc(N2CCN(Cn3nc4cc(C)c5ccccc5n4c3=S)CC2)cc1 [compound 1]
[2]
  inhibition at 22 µM: 10%

## CCCCCCCCCCCCCCCC(=O)NCCO [PEA, palmitoylethanolamide, reference compound]
RBD-ACE2 binding
  reduction of RBD binding with ACE2: ~50%
[1]
  inhibition at 200 µM: 17%

## CCn1c2ccccc2c2cc(NC(=O)c3ccc(OCC(N)=O)cc3)ccc21 [compound 4]
[2]; 67 μM
  reduction in viral induced CPE: over 10%
[1]
  inhibition at 200 µM: 28%

## N#Cc1ccc(C2(NC(=O)CCC(=O)N3CCC(c4ccccc4)=N3)CC2)cc1 [compound 35]
[2]
  inhibition at 33 µM: 16%

## Cc1ccc(C(C)N(C)C(=O)CCC(=O)N2CCC(c3ccccc3)=N2)cc1 (stereo not shown) [compound 27]
[2]
  antiviral activity (qualitative structure-activity relationship, CPE): activity maintained

## O=C(CCc1nc2ccccc2s1)N1CCC(CCc2ccc(O)cc2)CC1 [compound 9]
[1]
  inhibition at 200 µM: 20%

## CC(NC(=O)CCC(=O)N1CCC(c2ccccc2)=N1)c1ccc(-c2ccccc2)cc1 (stereo not shown) [compound 32]
[2]
  inhibition at 33 µM: 27%

## Cc1nc(-c2ccc(C(C)NC(=O)CCC(=O)N3CCC(c4ccccc4)=N3)cc2)cs1 (stereo not shown) [compound 20]
[2]
  inhibition at 33 µM: 34%
